Assay results taken from patent US10538555B2, “Macrocyclic inhibitors of the PD-1/PD-L1 and CD80(B7-1)/PD-L1 protein/protein interactions” (BRISTOL-MYERS SQUIBB COMPANY, priority 2014, dated 2020).
Where two headings read alike, the source gives them in different places. Where a SMILES comes first, the peptide text is derived from it. Bridges are numbered along the chain shown (N, C = ends). [ ]: non-standard residue; d: D form. ξ: configuration not given here. Hyp = O=C(O)[C@@H]1C[C@@H](O)CN1; NMeNle = CCCC[C@H](NC)C(=O)O; Pip = O=C(O)[C@@H]1CCCCN1; Orn = NCCC[C@H](N)C(=O)O; Dab = NCC[C@H](N)C(=O)O; Dap = NC[C@H](N)C(=O)O; ξPip = O=C(O)C1CCCCN1

Molecular target: T1, Human PD-L1/PD-1 (Homo sapiens, UniProt Q9NZQ7)
T1 construct: TVMV protease cleavage site (C); made in house; host or cells: HEK293T cells
Assay: HTRF Human PD-L1/PD-1 binding assay (PD-1-Ig/PD-L1-His)
Conditions: PD-L1-His 10 nM, PD-1-Ig 20 nM
How it was run: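 Truncated Fc-fused human PD-1 (aa 25-167) at 20 nM and His-tagged PD-L1 (aa 18-239) at 10 nM final are used, with peptides preincubated 15 min with PD-L1. Detection uses europium-cryptate anti-Ig and APC anti-His antibodies; 665/620 nm ratio.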

[1] = class symbol, read-out: HTRF Human PD-L1/PD-1 Binding Assay IC50 Range

T1 sequence (Q9NZQ7 with tags, fused parts or gaps): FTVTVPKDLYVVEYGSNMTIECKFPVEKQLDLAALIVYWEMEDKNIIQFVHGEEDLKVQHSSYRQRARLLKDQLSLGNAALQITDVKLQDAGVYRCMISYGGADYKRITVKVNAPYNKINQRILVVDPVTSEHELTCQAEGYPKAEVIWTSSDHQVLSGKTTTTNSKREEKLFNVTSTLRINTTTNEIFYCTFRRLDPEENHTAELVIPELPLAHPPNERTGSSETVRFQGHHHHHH

CCCC[C@H]1C(=O)N(C)[C@@H](CCCC)C(=O)N[C@@H](C)C(=O)N[C@H](C(=O)NCC(N)=O)CSCC(=O)N[C@@H](Cc2ccc(O)cc2)C(=O)N2CCCC[C@H]2C(=O)N[C@@H](CC(=O)O)C(=O)N2CCC[C@H]2C(=O)N[C@@H](CN)C(=O)N[C@@H](CC(C)C)C(=O)N2C[C@H](O)C[C@H]2C(=O)N[C@@H](Cc2c[nH]c3ccccc23)C(=O)N[C@@H](CO)C(=O)N[C@@H](Cc2c[nH]c3ccccc23)C(=O)N1C [Example 1523] ({CH2CO}-Y[Pip]DP[Dap]L[Hyp]WSW[NMeNle][NMeNle]ACG-NH2; thioether N-14)
IC50 [1]: 1 to 9.9 nM

CCCC[C@H]1C(=O)N(C)[C@@H](CCCC)C(=O)N[C@@H](C)C(=O)N[C@H](C(=O)NCC(N)=O)CSCC(=O)N[C@@H](Cc2ccc(O)cc2)C(=O)N2CCOC[C@H]2C(=O)N[C@@H](CC(=O)O)C(=O)N2CCC[C@H]2C(=O)N[C@@H](Cc2c[nH]cn2)C(=O)N[C@@H](CC(C)C)C(=O)N2C[C@H](O)C[C@H]2C(=O)N[C@@H](Cc2c[nH]c3ccccc23)C(=O)N[C@@H](CO)C(=O)N[C@@H](Cc2c[nH]c3ccccc23)C(=O)N1C [Example 1525]
IC50 [1]: 1 to 9.9 nM

CCCC[C@H]1C(=O)N(C)[C@@H](CCCC)C(=O)N[C@@H](CCC(=O)O)C(=O)N[C@H](C(=O)NCC(N)=O)CSCC(=O)N[C@@H](Cc2ccc(O)cc2)C(=O)N2CCCC[C@H]2C(=O)N[C@@H](CC(N)=O)C(=O)N2CCC[C@H]2C(=O)N[C@@H](CN)C(=O)N[C@@H](CCC(=O)O)C(=O)N2C[C@H](O)C[C@H]2C(=O)N[C@@H](Cc2c[nH]c3ccccc23)C(=O)N[C@@H](CCN)C(=O)N[C@@H](Cc2c[nH]c3ccccc23)C(=O)N1C [Example 1526] ({CH2CO}-Y[Pip]NP[Dap]E[Hyp]W[Dab]W[NMeNle][NMeNle]ECG-NH2; thioether N-14)
IC50 [1]: 1 to 9.9 nM

CCCC[C@H]1C(=O)N(C)[C@@H](CCCC)C(=O)N[C@@H](CCCN)C(=O)N[C@H](C(=O)NCC(N)=O)CSCC(=O)N[C@@H](Cc2ccc(O)cc2)C(=O)N2CCCCC2C(=O)N[C@@H](CC(=O)O)C(=O)N2CCC[C@H]2C(=O)N[C@@H](CN)C(=O)N[C@@H](CCC(=O)O)C(=O)N2C[C@H](O)C[C@H]2C(=O)N[C@@H](Cc2c[nH]c3ccccc23)C(=O)N[C@@H](CCN)C(=O)N[C@@H](Cc2c[nH]c3ccccc23)C(=O)N1C (stereo partly shown) [Example 1528] ({CH2CO}-Y[ξPip]DP[Dap]E[Hyp]W[Dab]W[NMeNle][NMeNle][Orn]CG-NH2; thioether N-14)
IC50 [1]: 10 to 99.9 nM

CCCC[C@H]1C(=O)N(C)[C@@H](CCCC)C(=O)N[C@@H](C)C(=O)N[C@H](C(=O)NCC(N)=O)CSCC(=O)N[C@@H](Cc2ccc(O)cc2)C(=O)N2CCNC[C@H]2C(=O)N[C@@H](CC(N)=O)C(=O)N2CCC[C@H]2C(=O)N[C@@H](Cc2c[nH]cn2)C(=O)N[C@@H](CC(C)C)C(=O)N2C[C@H](O)C[C@H]2C(=O)N[C@@H](Cc2c[nH]c3ccccc23)C(=O)N[C@@H](CO)C(=O)N[C@@H](Cc2c[nH]c3ccccc23)C(=O)N1C [Example 1529]
IC50 [1]: 1 to 9.9 nM

CCCC[C@H]1C(=O)N(C)[C@@H](CCCC)C(=O)N[C@@H](CCCN)C(=O)N[C@H](C(=O)NCC(N)=O)CSCC(=O)N[C@@H](Cc2ccc(O)cc2)C(=O)N2CCCCC2C(=O)N[C@@H](CC(=O)O)C(=O)N2CCC[C@H]2C(=O)N[C@@H](CN)C(=O)N[C@@H](CCC(=O)O)C(=O)N2C[C@H](O)C[C@H]2C(=O)N[C@@H](Cc2c[nH]c3ccccc23)C(=O)N[C@@H](CO)C(=O)N[C@@H](Cc2c[nH]c3ccccc23)C(=O)N1C (stereo partly shown) [Example 1530] ({CH2CO}-Y[ξPip]DP[Dap]E[Hyp]WSW[NMeNle][NMeNle][Orn]CG-NH2; thioether N-14)
IC50 [1]: 10 to 99.9 nM

CCCC[C@H]1C(=O)N(C)[C@@H](CCCC)C(=O)N[C@@H](CCCN)C(=O)N[C@H](C(=O)NCC(N)=O)CSCC(=O)N[C@@H](Cc2ccc(O)cc2)C(=O)N2CCCCC2C(=O)N[C@@H](CC(=O)O)C(=O)N2CCC[C@H]2C(=O)N[C@@H](Cc2c[nH]cn2)C(=O)N[C@@H](CCC(=O)O)C(=O)N2C[C@H](O)C[C@H]2C(=O)N[C@@H](Cc2c[nH]c3ccccc23)C(=O)N[C@@H](CCN)C(=O)N[C@@H](Cc2c[nH]c3ccccc23)C(=O)N1C (stereo partly shown) [Example 1531] ({CH2CO}-Y[ξPip]DPHE[Hyp]W[Dab]W[NMeNle][NMeNle][Orn]CG-NH2; thioether N-14)
IC50 [1]: 10 to 99.9 nM

CCCC[C@H]1C(=O)N(C)[C@@H](CCCC)C(=O)N[C@@H](CCCN)C(=O)N[C@H](C(=O)NCC(N)=O)CSCC(=O)N[C@@H](Cc2ccc(O)cc2)C(=O)N2CCOCC2C(=O)N[C@@H](CC(N)=O)C(=O)N2CCC[C@H]2C(=O)N[C@@H](Cc2c[nH]cn2)C(=O)N[C@@H](CC(C)C)C(=O)N2C[C@H](O)C[C@H]2C(=O)N[C@@H](Cc2c[nH]c3ccccc23)C(=O)N[C@@H](CO)C(=O)N[C@@H](Cc2c[nH]c3ccccc23)C(=O)N1C (stereo partly shown) [Example 1532]
IC50 [1]: 1 to 9.9 nM

CCCC[C@H]1C(=O)N(C)[C@@H](CCCC)C(=O)N[C@@H](CC(=O)O)C(=O)N[C@H](C(=O)NCC(N)=O)CSCC(=O)N[C@@H](Cc2ccc(O)cc2)C(=O)N2CCCCC2C(=O)N[C@@H](CC(=O)O)C(=O)N2CCC[C@H]2C(=O)N[C@@H](Cc2c[nH]cn2)C(=O)N[C@@H](CCCN)C(=O)N2C[C@H](O)C[C@H]2C(=O)N[C@@H](Cc2c[nH]c3ccccc23)C(=O)N[C@@H](CCCN)C(=O)N[C@@H](Cc2csc3ccccc23)C(=O)N1C (stereo partly shown) [Example 1533]
IC50 [1]: 1 to 9.9 nM

CC(C)C[C@@H]1NC(=O)[C@H](Cc2c[nH]cn2)NC(=O)[C@@H]2CCCN2C(=O)[C@H](CC(N)=O)NC(=O)[C@H](C)N(C)C(=O)[C@H](Cc2ccc(O)cc2)NC(=O)CSC[C@@H](C(=O)NCC(N)=O)NC(=O)[C@H](C)NC(=O)[C@H](CC(=O)O)N(C)C(=O)[C@H](CCCCN)N(C)C(=O)[C@H](Cc2c[nH]c3ccccc23)NC(=O)[C@H](CO)NC(=O)[C@H](Cc2c[nH]c3ccccc23)NC(=O)[C@@H]2C[C@@H](O)CN2C1=O [Example 1534]
IC50 (read-out: HTRF Human PD-L1/PD-1 Binding Assay IC50): 1000 nM

CCCC[C@H]1C(=O)N(C)[C@@H](CCCC)C(=O)N[C@@H](CCCN)C(=O)N[C@H](C(=O)NCC(N)=O)CSCC(=O)N[C@@H](Cc2ccc(O)cc2)C(=O)N2CCNC[C@H]2C(=O)N[C@@H](CC(N)=O)C(=O)N2CCC[C@H]2C(=O)N[C@@H](Cc2c[nH]cn2)C(=O)N[C@@H](CC(C)C)C(=O)N2C[C@H](O)C[C@H]2C(=O)N[C@@H](Cc2c[nH]c3ccccc23)C(=O)N[C@@H](CO)C(=O)N[C@@H](Cc2c[nH]c3ccccc23)C(=O)N1C [Example 1535]
IC50 [1]: 10 to 99.9 nM

CCCC[C@H]1C(=O)N(C)[C@@H](CCCC)C(=O)N[C@@H](CCCN)C(=O)N[C@H](C(=O)NCC(N)=O)CSCC(=O)N[C@@H](Cc2ccc(O)cc2)C(=O)N2CCCC[C@H]2C(=O)N[C@@H](CC(=O)O)C(=O)N2CCC[C@H]2C(=O)N[C@@H](Cc2c[nH]cn2)C(=O)N[C@@H](CCC(=O)O)C(=O)N2C[C@H](O)C[C@H]2C(=O)N[C@@H](Cc2c[nH]c3ccccc23)C(=O)N[C@@H](CO)C(=O)N[C@@H](Cc2c[nH]c3ccccc23)C(=O)N1C [Example 1536] ({CH2CO}-Y[Pip]DPHE[Hyp]WSW[NMeNle][NMeNle][Orn]CG-NH2; thioether N-14)
IC50 [1]: 10 to 99.9 nM

CCCC[C@H]1C(=O)N(C)[C@@H](CCCC)C(=O)N[C@@H](CCCNC(=N)N)C(=O)N[C@H](C(=O)NCC(N)=O)CSCC(=O)N[C@@H](Cc2ccc(O)cc2)C(=O)N2CCCC[C@H]2C(=O)N[C@@H](CC(=O)O)C(=O)N2CCC[C@H]2C(=O)N[C@@H](Cc2c[nH]cn2)C(=O)N[C@@H](CCCN)C(=O)N2C[C@H](O)C[C@H]2C(=O)N[C@@H](Cc2c[nH]c3ccccc23)C(=O)N[C@@H](CO)C(=O)N[C@@H](Cc2c[nH]c3ccccc23)C(=O)N1C [Example 1537] ({CH2CO}-Y[Pip]DPH[Orn][Hyp]WSW[NMeNle][NMeNle]RCG-NH2; thioether N-14)
IC50 [1]: 10 to 99.9 nM
